Two compounds from PMC8213057, “Targeting ALK2: An Open Science Approach to Developing Therapeutics for the Treatment of Diffuse Intrinsic Pontine Glioma” (Journal of Medicinal Chemistry, 2020) can be followed below.

One assay has as its target PKCg (Homo sapiens, UniProt P05129). The conditions noted are these: 1 μM; Run 1, Run 2.
The target of the next assay is T1, TAOK2/TAO1 (Homo sapiens, UniProt Q9UL54).
T1 sequence (Q9UL54 1-1235): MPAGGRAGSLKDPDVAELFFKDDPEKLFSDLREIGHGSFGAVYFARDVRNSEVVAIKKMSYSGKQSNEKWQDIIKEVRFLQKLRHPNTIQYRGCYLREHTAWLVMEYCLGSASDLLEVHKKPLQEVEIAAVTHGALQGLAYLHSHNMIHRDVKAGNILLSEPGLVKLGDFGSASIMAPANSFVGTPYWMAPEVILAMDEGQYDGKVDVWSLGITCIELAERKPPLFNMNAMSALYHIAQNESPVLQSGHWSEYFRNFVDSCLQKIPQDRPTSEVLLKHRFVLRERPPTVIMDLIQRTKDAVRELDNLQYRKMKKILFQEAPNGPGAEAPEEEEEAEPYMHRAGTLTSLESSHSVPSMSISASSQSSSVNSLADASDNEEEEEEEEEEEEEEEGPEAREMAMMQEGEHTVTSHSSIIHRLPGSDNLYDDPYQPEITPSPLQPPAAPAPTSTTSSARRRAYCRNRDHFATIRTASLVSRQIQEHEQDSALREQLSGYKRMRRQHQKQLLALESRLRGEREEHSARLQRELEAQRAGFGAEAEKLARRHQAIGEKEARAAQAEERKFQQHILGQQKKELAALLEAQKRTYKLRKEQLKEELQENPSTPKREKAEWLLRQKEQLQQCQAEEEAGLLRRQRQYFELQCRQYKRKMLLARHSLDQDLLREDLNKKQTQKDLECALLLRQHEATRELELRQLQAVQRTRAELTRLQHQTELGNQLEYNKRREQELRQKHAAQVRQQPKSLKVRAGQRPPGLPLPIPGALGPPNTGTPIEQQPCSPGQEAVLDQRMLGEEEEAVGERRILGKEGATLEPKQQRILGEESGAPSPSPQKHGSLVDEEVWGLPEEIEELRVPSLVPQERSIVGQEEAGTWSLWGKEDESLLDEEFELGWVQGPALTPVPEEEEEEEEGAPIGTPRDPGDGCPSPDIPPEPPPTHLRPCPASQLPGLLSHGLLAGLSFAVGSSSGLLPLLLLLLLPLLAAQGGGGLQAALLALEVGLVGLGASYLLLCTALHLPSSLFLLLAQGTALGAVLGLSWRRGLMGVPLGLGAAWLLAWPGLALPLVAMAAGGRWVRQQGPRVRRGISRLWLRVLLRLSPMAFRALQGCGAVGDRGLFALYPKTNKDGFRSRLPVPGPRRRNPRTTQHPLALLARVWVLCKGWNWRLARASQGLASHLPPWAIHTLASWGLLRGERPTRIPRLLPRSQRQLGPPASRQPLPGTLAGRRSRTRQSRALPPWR
In words: biochemical. As to conditions: read-out: % enzyme activity, 1 μM; Run 1, Run 2.

The next assay addresses PKAcb (Homo sapiens, UniProt P22694). In words: biochemical. The conditions noted are these: read-out: % enzyme activity, 1 μM; Run 1, Run 2.
The target in another assay is T2, MARK4 (Homo sapiens, UniProt Q96L34).
T2 sequence (Q96L34 1-752): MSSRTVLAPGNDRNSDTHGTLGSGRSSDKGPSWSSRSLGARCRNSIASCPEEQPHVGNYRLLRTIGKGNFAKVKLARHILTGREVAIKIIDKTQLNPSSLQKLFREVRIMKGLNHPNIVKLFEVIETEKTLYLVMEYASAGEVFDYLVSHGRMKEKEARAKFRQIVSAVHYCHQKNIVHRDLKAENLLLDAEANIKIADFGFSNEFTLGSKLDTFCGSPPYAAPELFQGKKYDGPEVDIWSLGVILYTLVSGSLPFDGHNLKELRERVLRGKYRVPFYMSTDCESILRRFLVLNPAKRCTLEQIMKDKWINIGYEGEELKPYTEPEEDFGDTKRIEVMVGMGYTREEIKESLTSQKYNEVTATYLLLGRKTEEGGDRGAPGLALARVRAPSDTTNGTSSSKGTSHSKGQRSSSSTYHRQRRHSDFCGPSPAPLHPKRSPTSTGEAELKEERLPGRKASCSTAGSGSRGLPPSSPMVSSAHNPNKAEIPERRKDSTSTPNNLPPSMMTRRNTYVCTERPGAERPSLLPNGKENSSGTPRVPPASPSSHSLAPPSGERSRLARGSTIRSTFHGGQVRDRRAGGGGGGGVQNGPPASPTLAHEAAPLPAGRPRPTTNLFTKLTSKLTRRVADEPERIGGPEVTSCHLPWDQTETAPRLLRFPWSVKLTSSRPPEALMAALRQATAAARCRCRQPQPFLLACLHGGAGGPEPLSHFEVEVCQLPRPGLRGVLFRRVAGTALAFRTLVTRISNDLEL
The assay is described as follows: biochemical. As to conditions: read-out: % enzyme activity, 1 μM; Run 1, Run 2.

A further assay addresses JNK2 (Homo sapiens, UniProt P45984). As to conditions: 1 μM; Run 1, Run 2.

Sequence of JNK2 (P45984 whole entry): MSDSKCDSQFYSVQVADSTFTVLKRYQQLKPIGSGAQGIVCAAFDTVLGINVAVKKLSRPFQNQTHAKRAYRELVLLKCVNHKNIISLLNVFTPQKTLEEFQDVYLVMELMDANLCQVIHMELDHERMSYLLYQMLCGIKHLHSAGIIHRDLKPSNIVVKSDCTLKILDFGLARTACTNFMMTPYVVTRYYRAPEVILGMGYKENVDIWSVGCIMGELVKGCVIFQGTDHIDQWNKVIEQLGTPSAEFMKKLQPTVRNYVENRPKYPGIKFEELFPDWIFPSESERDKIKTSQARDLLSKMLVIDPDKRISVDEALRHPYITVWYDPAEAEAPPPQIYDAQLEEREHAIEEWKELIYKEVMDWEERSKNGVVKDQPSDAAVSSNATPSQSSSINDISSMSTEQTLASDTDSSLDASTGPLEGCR

Turning to `COc1cc(-c2cncc(-c3ccc(N4CCN(C)CC4)cc3)c2C)cc(F)c1C(N)=O` [Compound 26a, 2-Fluoro-6-methoxy-4-(4-methyl-5-(4-(4-methylpiperazin-1-yl)phenyl)pyridin-3-yl)benzamide], the “% enzyme activity” value on PKCg turned out to be 96.27%; on JNK2 it was 91.99%. Besides, the remaining activity at 1 µM at TAOK2/TAO1 was 88.6%; at PKAcb, 96.2%; on MARK4 it was 83.7%.

`COc1cc(-c2cncc(-c3ccc(N4C[C@@H](C)N(C)[C@@H](C)C4)cc3)c2C)cc(F)c1C(N)=O` [Compound 26c, 2-Fluoro-6-methoxy-4-(4-methyl-5-(4-((3R,5S)-3,4,5-trimethylpiperazin-1-yl)phenyl)pyridin-3-yl)benzamide]: the “% enzyme activity” value at PKCg was 96.41%; on JNK2, 94.14%. Further, the remaining activity at 1 µM at TAOK2/TAO1 was 101%; at PKAcb, 97.9%; on MARK4 it was 96.8%.
